In US6265439A, “Halogenated phenylacetonitrile alkylaminoalkylphenyl compounds as immunosuppressives” (G.D. Searle & Co., priority 2000, dated 2001):
Counter-ions that a name gives are not always drawn.

Columns and labels:
[1] = tested on: conA stimulated spleen cells (T lymphocytes) from female Balb/c mice; experiment: Assay B: Suppression of Mitogen-Stimulated Proliferation (Murine) (Culture Conditions II); format: cell-based, Murine (Balb/c mice); settings: Mus musculus, T-lymphocyte, 72 h; conA 1 ug/ml, 10^5 cells per well, 3 days, MTT
From the text: Assay B: Suppression of Mitogen-Stimulated Proliferation(Murine)(Culture Conditions II.)
It is known that lymphocyte activation can be polyclonally stimulated by plant lectins and other mitogenic substances that induce blast transformation and mitosis. The plant lectin concanavalin A (conA) preferentially induces activation and proliferation of T lymphocytes. Exposure of T cells to conA results in polyclonal T cell activation, and this response can be used to determine the in vitro index of immunomodulatory effects of test compounds on pan-T cell activation. Spleen cells were harvested asceptically from female Balb/c mice, and cells were extruded by compression in phosphate buffered saline (pH 7.0). Cells were pelleted by centrifugation (300×g/5 min) and erythrocytes were lysed by resuspension of the splen cells in a hypotonic solution (5 ml per spleen) containing 0.14M NH4 Cl and 0.017M Tris base, pH 7.2, and incubation for 5 min. An equal volume of freshly prepared medium [lscovels modified Dulbecco's medium containing 2 mM L-glutamine, 5% heat inactivated (56° C./45 min) fetal bovine serum and 40 uM 2-mercaptoethanol] .was added to stop cell lysis. The remaining cells were pelleted, resuspended in medium, filtered through a cotton plug to remove debris, and the leukocytes were then counted. Leukocytes (10^5 cells per 10 ul per well) were incubated at 37° C. in a 95% air/[…] atmosphere in 96 well microtiter plates for 3 days. At the start of culture conA (1 ug/ml, SIGMA Chemical Co., St. Louis, Mo.) alone or in combination with test compound (0.0001-60 uM final) or vehicle control (0.6% DMSO or ethanol). All test compounds were dissolved in 95% ethanol or 100% DMSO, and subsequent dilutions were prepared in media. Inhibition of conA stimulated T cell proliferation was measured using a calorimetric indicator of cell growth and proliferation, MTT [3-(4,5-dimethylthiazol-2-yl)-2 diphenyltetrazolium bromide; 100 ul of a 1 mg/ml solution per well, SIGMA][Mosmann, T., 1988. J. Immunol. Methods 65, 55-63.]Cells were loaded with MTT dye at 37° C. for 4 hours; media supernatants were then aspirated from the cell pellets. MTT loaded cells were solubilized in isopropanol (150 ul per well). Light absorbance was measured at a test wavelength of 570 nm and a reference wavelength of 650 nm using a spectrophotometer. EC50 values for immunosuppressive compounds were estimated by four parameter logistical regression analysis of the optical density data [Delean, A., Munson, P. J. and D. Robard, 1978. Am,. J. Physiol. 235:397.

[2] = tested on: ConA-stimulated spleen cells (T-cells) from female Balb/c mice; experiment: Assay A: Suppression of Mitogen-Stimulated Proliferation (Murine) (Culture Conditions I); format: cell-based, Murine (Balb/c mice); settings: Mus musculus, T-cell, 120 h; ConA 1.0 μg/ml, 10^5 cells/well, 5 days, MTT
From the text: Assay A: Suppression of Mitogen-Stimulated Proliferation (Murine)(Culture Conditions I)
Lymphocyte activation can be polyclonally stimulated by plant lectins and other mitogens that induce blast transformation and mitosis. Certain mitogens like Concanavalin A (ConA), preferentially activate T-lymphocytes. Exposure to ConA results in polyclonal activation of T-cells and can be used as an in vitro index for general immunomodulation of pan T-cell activity. In this assay spleen cells harvested from female Balb/c mice were incubated at 37° C., in 95% air/5% CO2 atmosphere in 96 well microtiter plates (10^5 cells/well) for 5 days with Iscove's modified Dulbecco's medium [25 mM HEPES […] L-glutamine, 5% fetal bovine serum and 2-mercaptoethanol (40 μM)], concanavalin A (ConA) alone (Sigma, St. Louis, Mo.; 1.0 μg/ml) or ConA in the presence of test compounds (0.001-25 μM). Inhibition of ConA-stimulated proliferation was measured by addition of the calorimetric indicator of growth metabolic activity or viability, MTT (3-(4,5-dimethylthiazol-2-yl)-2 diphenyl tetrazolium bromide; (100 μl/well, 1 mg/ml) Sigma) [Mosmann, T., J. of Immunological Methods, 65, 55-63, 1988]. After four hours, plates were centrifuged (1200 rpm) media supernatants aspirated and dye loaded cells were solubilized in isopropanol (150 μl/well). The absorbance was measured on an ELISA plate reader with a test wavelength of 570 nm and a reference of 630 nm. The IC50 values for active immunosuppressant compounds were calculated by four parameter logistic regression analysis of the results [Delean et al, Am. J. Physiol., 235, 397 (1978)].

[3] = tested on: human peripheral blood mononuclear cells; experiment: Assay C: One-Way Mixed Lymphocyte Reaction (Human); format: cell-based; settings: mitomycin-C inactivated Raji stimulator cells, 120 hours, 3H-thymidine incorporation
From the text: Assay C: One-Way Mixed Lymphocyte Reaction (Human)
The mixed lymphocyte reaction (MLR) is an assay that measures T-cell activation and mitosis which occurs when lymphocytes from different major and minor histocompatibility complex (MHC) haplotypes are cocultured. This response is considered a "one-way MLR" when stimulator cells are made unresponsive by inhibition of DNA synthesis (treatment with mitomycin-C or gamma-irradiation) prior to coculture with responder cells. This assay can be used as an indicator of the cellular immunomodulation mechanisms involved in transplant rejection. In this assay, human peripheral blood mononuclear cells(PMNC) were used as the responder cell population and were isolated from normal donor blood as follows: Blood samples were collected in LeucoPREP™ tubes (Becton Dickinson, Lincoln Park, N.J.) and the mononuclear cell preparation was obtained by following the manufacturers procedures. Isolated mononuclear cells were co-incubated at 6×10^4 cells/well with a stimulator cell line at 2×10^4 cells/well in RPMI 1640 medium containing 5% fetal bovine serum and 2-mercaptoethanol (40 μM). The stimulator cell line, Raji, which was derived from a human Burkitt lymphoma (American Type Culture Collection, Rockville Md.) was previously inactivated by mitomycin-C treatment (Sigma, St. Louis Mo., 25 μg/ml, 37° for 30 minutes). After repeated washings of mitomycin-C from the stimulator cell line, cocultures were incubated in 96 well microtiter plates at 37° C., in 95% air/5% CO2 atmosphere for 120 hours in the presence or absence of test compounds (0.1-25 μM). Inhibition of proliferation was measured by reduced incorporation of ^3 H-thymidine (0.5 μCi/well, added during the last 24 hours of the assay). The IC50 values for the immunosuppressant compounds were calculated by four parameter logistic regression analysis of the results [Delean et al, Id.]

[4] = literature, Acta. Pharmacologica Sinica, 11(3), 281-285 (1990); cited from earlier work

IC50 [3] [µM]	Structure (SMILES)	IC50 [1] [µM]	IC50 [2] [µM]	acute and chronic antiinflammatory effects [4]
	CC(C)C(C#N)(CCCN(C)Cc1ccccc1)c1ccc(F)c(F)c1 (racemic) [Example 1, (±)-3,4-difluoro-α-(1-methylethyl)-α-[3-[methyl(phenylmethyl)amino]propyl]benzeneacetonitrile]	2.41		
4.8	CC(C)C(C#N)(CCCN(C)CCc1ccccc1)c1ccc(F)cc1 (racemic) [Example 3, (±)-4-fluoro-α-(1-methylethyl)-α-[3-[methyl(2-phenylethyl)amino]propyl]benzeneacetonitrile, monohydrochloride]	3.22	1	
	COC(=O)C1=C(C)NC(C)=C(C(=O)OC)C1c1ccccc1[N+](=O)[O-] [nifedipine]			dose-dependent acute and chronic antiinflammatory effects
2.9	CC(C)C(C#N)(CCCN(C)Cc1ccccc1)c1ccccc1F (racemic) [Example 8, (±)-2-fluoro-α-(1-methylethyl)-α-[3-[methyl (phenylmethyl)amino]propyl]benzeneacetonitrile, monohydrochloride]	3.35	1.4	
	COC(=O)C1=C(C)NC(C)=C(C(=O)OCCN(C)Cc2ccccc2)C1c1cccc([N+](=O)[O-])c1 (stereo not shown) [nicardipine]			dose-dependent acute and chronic antiinflammatory effects
2.3	CN(CCCC(C#N)(c1ccc(F)cc1)C1CCCC1)Cc1ccccc1 (racemic) [Example 4, (±)-α-cyclopentyl-4-fluoro-α-[3-(methyl(phenylmethyl)amino]propyl]benzeneacetonitrile, monohydrochioride]	4.81	3.2	
	CC(C)C(C#N)(CCCCCN(C)Cc1ccccc1)c1ccc(F)cc1 (racemic) [Example 6, (±)-4-fluoro-α-(1-methylethyl)-α-[5-methyl(phenylmethyl)amino]pentyl]benzeneacetonitrile]	0.93	0.5	
7.2	CC(C)C(C#N)(CCCN(C)Cc1ccccc1)c1ccc(F)cc1 (racemic) [Example 2, (±)-4-fluoro-α-(1-methylethyl)-α-[3-[methyl (phenylmethyl)amino]propyl]benzeneacetonitrile, monohydrochloride]	5.19	2.2	
	CC(C)C(C#N)(CCCN(C)Cc1ccccc1)c1c(F)cccc1F (racemic) [Example 9, (±)-2,6-difluoro-α-(1-methylethyl)-α-[3-[methyl(phenylmethyl)amino]propyl]benzeneacetonitrile, monohydrochloride]	4.15		
	CC(C)C(C#N)(CCCN(Cc1ccccc1)Cc1ccccc1)c1ccc(F)cc1 (racemic) [Example 10, (±)-α-[3-[bis(phenylmethyl)amino]propyl]-4-fluoro-α-(1-methylethyl)benzeneacetonitrile, monohydrochloride]	13.5		
2.1	CC(C)C(C#N)(CCCCN(C)Cc1ccccc1)c1ccc(F)cc1 (racemic) [Example 5, (±)-4-fluoro-α-(1-methylethyl)-α-[4-(methyl (phenylmethyl)amino]butyl]benzeneacetonitrile, monohydrochloride]	1.76	0.9	
